The text below walks through data of ChEMBL document CHEMBL1154655, “Curcumin analog cytotoxicity against breast cancer cells: exploitation of a redox-dependent mechanism” (Bioorg Med Chem Lett, 2009).

One assay has as its system MDA-MB-435. As to the kind of experiment: Cytotoxicity against human MDA-MB-435 cells. The format is functional, cell-based.
The next assay relates to A549. As to the kind of experiment: Inhibition of NF-kappaB nuclear translocation in human A549 cells. The format is functional, cell-based.

The structures appear in SMILES notation.

Broadly, the IC50 is the midpoint of a concentration-inhibition curve. Read a high IC50 as lower potency. In turn, `O=C1/C(=C/c2ccccn2)CNC/C1=C\c1ccccn1` displayed an IC50 in the assay with MDA-MB-435 of 1000 nM.
In the case of `COc1cc(/C=C/C(=O)CC(=O)/C=C/c2ccc(O)c(OC)c2)ccc1O` [CURCUMIN], the IC50 in the assay on A549 stood at 13000 nM.
As for `O=C1/C(=C/c2ccccc2F)CNC/C1=C\c1ccccc1F`, the IC50 with MDA-MB-435 amounted to 1500 nM; in the assay with A549 it was 1300 nM.
